Reference: patent publication US20260007613A1, “LONG-ACTING LOW-TOXICITY NOVEL CATIONIC LIPID COMPOUNDS AND COMPOSITION THEREOF” (BEIJING YOUCAREKECHUANG PHARMACEUTICAL TECHNOLOGY CO., LTD., priority 2023, published 2026)

Columns and labels:
293T cells [1] = assay: Fluorescent detection of Fluc-mRNA (cell transfection efficiency of LNP formulations); format: cell-based; conditions: for Relative light unit (RLU): LNP formulation of Fluc-mRNA, 96-well plate, 24 hours; for Multiples (YK-305): RLU of YK-305 / RLU of the lipid of the line; for Multiples (YK-310): RLU of YK-310 / RLU of the lipid of the line; for Multiples (YK-312): RLU of YK-312 / RLU of the lipid of the line; for Multiples (YK-318): RLU of YK-318 / RLU of the lipid of the line; for Multiples (YK-318) / Multiples (YK-319): Tables 5, 7, 11; for Multiples (YK-319): RLU of YK-319 / RLU of the lipid of the line; for Ratio relative to SM-102: RLU of the lipid / RLU of SM-102, times that of SM-102
Procedure: (§1) Cell recovery and passage: 293T cells were recovered, cultured in a culture dish, and passaged to the required number of cells.
(§2) Seeding plate: The cells in the culture dish were digested and counted. Cells were spread in a 96-well plate at 10,000 cells per well and in a 12-well plate at 150,000 cells per well. Cells were cultured overnight until the cells adhered to the wall.
(§3) Cell recovery and passage: the method was the same as in Example 3.
(§4) Seeding plate: the method was the same as in Example 3.
An LNP formulation containing […] of Fluc-mRNA (the carrier components of the LNP formulation were cationic lipid, neutral lipid, structured lipid and polymer-conjugated lipid with a molar ratio of 49:10:39.5:1.5, wherein the cationic lipid was listed in Table 1) was added to the cell culture medium of a 96-well plate, and further incubated for 24 hours. The corresponding reagent was added according to the instructions of the […] Luciferase Assay Kit, and the fluorescence expression intensity of each well was detected by an IVIS fluorescence detection system. This test verified the transfection efficiencies of LNP formulations in cells, see Tables 4-7 for specific test results.

[2] = Particle size and polydispersity index (PDI) of lipid nanoparticles by dynamic light scattering; format: physicochemical; conditions: LNP formulation prepared from the cationic lipid, 25° C.
Procedure: The particle size and polydispersity index (PDI) were determined by dynamic light scattering using Malvern laser particle size analyzer.
10 μL of the liposome solution was weighed, diluted to 1 mL with RNase-free deionized water, and added to the sample pool. Each sample was measured in triplicate. The measurement conditions were: […] scattering angle, and 25° C.

293T cells [3] = assay: Cell survival rate determination (CCK-8); format: cell-based; conditions: LNP formulation of Fluc-mRNA, 24 hours, CCK-8
Procedure: as §1, §2, §3, §4
An LNP formulation containing […] of Fluc-mRNA (the carrier components of the LNP formulation were cationic lipid, neutral lipid, structured lipid and polymer-conjugated lipid with a molar ratio of 49:10:39.5:1.5, wherein the cationic lipid was listed in Table 1) and the formulation of Lipofectamine 3000 were added to the cell culture medium of a 96-well plate, and further cultivated for 24 hours. 10 μL of CCK-8 solution was then added to each well, and the culture plate was incubated in an incubator for 1 hour. The absorbance at 450 nm was measured by a microplate reader.
Cell survival rate can represent the toxicity of cationic lipids to cells. The higher the cell survival rate, the lower the toxicity to cells.

SMILES	Relative light unit (RLU) (293T cells [1])	Multiples (YK-305) (293T cells [1])	Multiples (YK-310) (293T cells [1])	Multiples (YK-312) (293T cells [1])	Multiples (YK-318) (293T cells [1])	Multiples (YK-319) (293T cells [1])	PDI (%) [2] [%]	Particle size (nm) [2] [nm]	Cell survival rate (%) (293T cells [3])	Cell survival rate (%) (293T cells [3]; listed as YK 303)	Ratio relative to SM-102 (293T cells [1])
CCCCCCCCCCOC(=O)CCCN(CCCCCC(=O)OCC(CCCCCCCC)CCCCCCCC)C[C@H](O)CN(C)CCO [YK-301, (R)-2-octyldecyl-6-((4-(decyloxy)-4-oxobutyl)((2-hydroxy-3-(2-hydroxyethyl)(methyl)amino)propyl)amino)hexanoate]	842452	32.53	30.62	23.92	13.28	29.04	7.0	192	52.96	–	–
CCCCCCCCCCCOC(=O)CCCCCN(CCCC(=O)OCCCC(CCCCCCCCCC)CCCCCCCCCC)C[C@H](O)CN(C)CCO [YK-303, (R)-undecyl-6-(4-(4-decyltetradecyloxy)-4-oxobutyl)((2-hydroxy-3-((2-hydroxyethyl)(methyl)amino)propyl)amino)hexanoate]	626314	43.76	41.19	32.17	17.87	39.07	–	–	82.18	63.32	–
CCCCCCCCCCCOC(=O)CCCCCN(CCCCCC(=O)OCCCCCCCCCCC)C[C@H](O)CN(C)CCO [YK-304, (R)-bis(undecyl)-6,6′-((2-hydroxy-3-((2-hydroxyethyl)(methyl)amino)propyl)azanediyl)dihexanoate]	20686	1324.99	1247.08	974.01	540.95	1182.82	19.8	149	34.16	–	–
CCCCCCC(CCCCCC)CCOC(=O)CCCCCN(CCCCCC(=O)OCCC(CCCCCC)CCCCCC)C[C@H](O)CN(C)CCO [YK-306, (R)-bis(3-hexylnonyl)-6,6′-((2-hydroxy-3-((2-hydroxyethyl)(methyl)amino)propyl)azanediyl)dihexanoate]	2197174	12.47	11.14	9.17	5.09	11.14	13.6	228	42.19	–	–
CCCCCCCCCCC(CCCCCCCCCC)CCCOC(=O)CCCN(CCCC(=O)OCCCC(CCCCCCCCCC)CCCCCCCCCC)C[C@H](O)CN(C)CCO [YK-307]	4557420	6.01	5.66	4.42	2.46	5.37	32.2	210	61.14	–	–
CCCCCCCCCCOC(=O)CCCN(CCCCCC(=O)OCC(CCCCCCCC)CCCCCCCC)C[C@H](O)CN(CC)CCO [YK-308]	5036582	5.44	5.12	4.00	–	–	13.4	211	70.99	–	3.14
CCCCCCC(CCCCCC)CCOC(=O)CCCCCN(CCCCCC(=O)OCCC(CCCCCC)CCCCCC)C[C@H](O)CN(CC)CCO [YK-311]	1963636	13.96	13.14	10.26	–	–	31.1	209	70.06	–	1.22
CCCCCCCCC(CCCCCCCC)OC(=O)CCCCCCCN(CCCCCCCC(=O)OC(CCCCCCCC)CCCCCCCC)C[C@H](O)CN(CC)CCO [YK-314]	547434	50.07	47.12	36.81	–	–	24.6	235	67.88	–	0.34
CCCCCCCCCCC(CCCCCCCCCC)CCCOC(=O)CCCN(CCCC(=O)OCCCC(CCCCCCCCCC)CCCCCCCCCC)C[C@H](O)CN(CC)CCO [YK-315]	1587188	17.27	16.25	12.69	–	–	34.9	181	71.28	–	0.99
CCCCCCCCC(CCCCCCCC)COC(=O)CCCCCN(CCCCCC(=O)OCC(CCCCCCCC)CCCCCCCC)C[C@H](O)CN(CCO)CCO [YK-316, (S)-bis(2-octyldecyl)-6,6′-(((3-(bis(2-hydroxyethyl)amino)-2-hydroxypropyl)azanediyl))dihexanoate]	4810210	5.70	5.36	4.19	2.33	5.09	17.5	188	70.53	–	3.00
CCCCCCC(CCCCCC)CCOC(=O)CCCCCN(CCCCCC(=O)OCCC(CCCCCC)CCCCCC)C[C@H](O)CN(CCO)CCO [YK-317, (S)-Bis(3-hexylnonyl)-6,6′-((3-(bis(2-hydroxyethyl)amino)-2-hydroxypropyl)azanediyl)dihexanoate]	3605054	7.60	7.16	5.59	3.10	6.79	16.4	255	59.18	–	2.25
CCCCCCCCC(CCCCCCCC)OC(=O)CCCCCCCN(CCCCCCCC(=O)OC(CCCCCCCC)CCCCCCCC)C[C@H](O)CN(CCO)CCO [YK-320, (S)-Bis(heptadecan-9-yl)-8,8′-((3-(bis(2-hydroxyethyl)amino)-2-hydroxypropyl)azanediyl)dicaprylate]	2702966	10.14	9.54	7.45	4.14	9.05	19.6	212	71.07	–	1.69
